This note sets out measurements from patent publication US20220096515A1, “Methods and Formulations for Preventing Neurological or Psychiatric Disorders” (Huntington Medical Research Institutes, priority 2020, published 2022).

Test [1] relates to neuronal cells isolated from the E15 CD1 forebrain. In words: Neuronal cell proliferation and long-distance migration in vitro. Format: cell-based, mouse. How it is done:
Isolation and primary culture of neuronal cells: Primary culture of embryonic GABAergic neurons from CD1 telencephalon or after the saline or NAD+ treatment paradigms were performed using established methods. Briefly, embryonic brains were extracted under a stereo microscope and placed into cold PBS. After removal of the pial membrane, the telencephalon was dissected from each embryonic brain. The telencephalon was minced into 1-2 mm slices in cold PBS. Minced telencephalon was treated with 0.1× trypsin/EDTA at 37° C. for 5 min. Trypsin treatment was stopped by adding FBS-DMEM media and DNase I consecutively. Dissociated cells were filtered with a 40 μm cell strainer and finally filtered cells were cultured in poly-D-lysine coated culture dishes with Neurobasal medium (Life technologies) with 1× B-27 (Life technologies) and 1× Glutamax (Life technologies).
Neuronal migration assay: In preparation for cell migration assays, one well square culture inserts (ibidi GmbH) were placed in the center of a poly-Ornithine/Laminin coated 35 mm dish, to make a small rectangular patch that is labeled outside the dish. Embryonic neurons prepared from the saline and NAD+ treated groups were seeded in the inserts in Neurobasal medium, supplemented with 1× B-27 and 1× Glutamax. After the cells had attached, the inserts were removed to initiate cell migration in all 4 quadrants of the dish. After 24 hours, cells were fixed and labeled with anti-β-Tubulin antibody (1:2000, Biolegend). Neuronal migration was assessed by measuring the distance between the final positions of cells from the border of the rectangular patch was outlined on the first day, using ImageJ software.
In one experiment, periventricular endothelial cells were isolated from E15 wildtype (CD1) forebrain and tested the effect of NAD^+ addition in vitro. Exogenous addition of 100 μM NAD^+ was able to initiate significant endothelial cell proliferation within 2 days of culture and a 35 mm culture dish was confluent within 4-6 days (FIGS. 2A-2D). […]

Test [2] concerns Gabrb3^ECKO mice. In words: Y maze spontaneous alternation test. It is filed as in vivo, mouse. The following applies: vs saline-treated Gabrb3^ECKO mice. How it is done: Behavioral Experiments: Mice were housed in our animal facility with a 12-hour light cycle with ad libitum access to food and water. Offspring stayed with their mothers until weaning at PND 21 after which males and females were separated. Before all behavioral testing, mice were acclimated to the testing room for 1 hour. Behavioral assays were performed according to established protocols referenced here: self-grooming, light-dark box, tail suspension test, Y-maze, open field locomotion activity, three chamber social interaction test and nest building with nestlets and with shredded paper. Both males and females were used for all behavioral assays. Experimenters scoring behaviors were blinded to the genotypes and treatment. Sample sizes for each assay are noted in figure legends.
Anxiety was next assessed with the classic light-dark transition test which triggers a struggle between the desires to explore a novel environment versus natural aversion of a brightly illuminated open space. […] The Y maze spontaneous alternation test was used to evaluate for spatial learning and memory in the three groups of mice. After introduction to the center of the maze, the mice were given free access to all three arms. […] The total number of arm entries and the sequence of entries are recorded in order to calculate the percentage of alternation. […]

The subject of test [3] is Gabrb3^ECKO cerebral cortex. In words: Adult (P90) cortex vessel densities and GABA cell counts after prenatal treatment. It is filed as in vivo, mouse. The protocol:
Histology, immunohistochemistry, and microscopic analysis: Paraffin immunohistochemistry (IHC) was performed on embryonic brains only while frozen section IHC was used on both embryonic and adult brains. Briefly, for paraffin IHC-E18 brains were fixed in zinc fixative (BD Biosciences PharMingen) for 24 h and processed for paraffin histology. Histological stainings with hematoxylin (Vector Laboratories) and eosin (Sigma) were performed on 8 μm coronal sections. Lectin histochemistry (with biotinylated isolectin B4, 1:50, Sigma) as well as IHC was performed on 20 μm sections. […]
Morphometry: A stereological point grid was superimposed on digital images of biotinylated isolectin-B4+ vessels using ImageJ software. The ratio between points falling on blood vessels and on brain tissue was calculated for each section, and average values were obtained.
Cell counting: Profiles of GABA+ immunoreactive cells were counted in the prefrontal cortex (at bregma levels 1.5, 0.5 and −1.5) using stereotaxic coordinates from the atlas: The Mouse Brain in Stereotaxic Coordinates, by Paxinos and Franklin. For each area, cells in the strip of cortex from the pial surface to the white-gray matter interface were counted using ImageJ software and plotted. […]

Regarding `NC(=O)c1ccc[n+]([C@@H]2O[C@H](COP(=O)([O-])OP(=O)(O)OC[C@H]3O[C@@H](n4cnc5c(N)ncnc54)[C@H](O)[C@@H]3O)[C@@H](O)[C@H]2O)c1` [NAD^+], the neuronal cell proliferation result in test [1] (NAD^+ addition) was “an increase in cell proliferation”. Besides, the “long-distance migration of neuronal cells” value in test [1] (NAD^+ addition, neurons alone) is listed as “increased long-distance migration of neuronal cells”. For the same molecule, the “long-distance migration of neuronal cells” value in test [1] (neurons seeded on periventricular endothelial cells) is listed as “more robust”. Also, in test [2], the percentage alternations result was “significant increase in percentage alternations”. Besides, in test [3], the “GABAergic interneurons in adult cerebral cortex” value was “concurrent increase” and the “blood vessel densities in adult cerebral cortex” value was “concurrent increase”.
